Source: patent US12660840B2, “Composition containing polyphenol” (CJ CHEILJEDANG CORPORATION, priority 2019, dated 2026)
Marks after values point to notes of the source that are not given here.

Legend:
polyphenol oxidase (PPO) = assay: Polyphenol oxidase (PPO) inhibitory activity; assay type: biochemical; conditions: pH 6.5, 25° C., catechin substrate, absorbance 420 nm; Table 11
Protocol: 1.7 mL of 50 mM phosphate buffer (pH 6.5) and 0.2 mL of PPO (4,276 units/mg) were mixed, and 0.1 mL of each polyphenol composition was added, and the mixture was left in a constant temperature water bath controlled at 25° C. for 15 minutes, and 1 mL of 4 mM catechin solution was added thereto as a substrate, respectively. Then, a change in absorbance for 5 minutes at 420 nm was measured by using a microplate reader (M2, Molecular Device, Canada). The enzyme inhibitory activity was expressed as absorbance reduction (%) represented by the following formula: Inhibition of PPO activity (%)=[1−(A/B)]×100 • [A: absorbance of sample, B: absorbance of blank solution]

[1] = DPPH radical scavenging activity; conditions: 10 minutes reaction, absorbance 517 nm; Table 7
Protocol: 4 mM of DPPH solution in ethanol was prepared and used after the absorbance was adjusted to 1.000±0.1. 0.2 mL of each sample was added to a test tube, 2.8 mL of DPPH solution was mixed and allowed to react for 10 minutes, and the absorbance was measured at 517 nm by using a microplate reader (M2, Molecular Device, Canada). L-ascorbic acid was used as a positive control. The DPPH radical scavenging activity was calculated from the following formula: DPPH radical scavenging activity (%)=[1−(A/B)]×100 • (A: absorbance of a group with addition of sample, B: absorbance of a group without addition of sample)

[2] = Oxidation stability of lipid by Rancimat method; conditions: fish oil containing 2% of the polyphenol composition, 100° C., Table 9; for IP (min) induction period: air 20 L/hr; for AI Antioxidative Index: relative to lipid without composition
Protocol: Oxidation stability of lipid was analyzed by using the Rancimat (743 Metrohm Co., Herisau, Switzerland) method. 2.5 g of fish oil [Sigma-Aldrich Co. (St. Louis. MO, USA)] containing 2% of the polyphenol composition was put into a reaction vessel, and air was put at 20 L/hr into lipid on an aluminum heating block controlled at 100° C. to oxidize lipid. The volatile oxidation products generated during this time were transferred to an absorption vessel containing 60 mL of distilled water, and the degree of anti-oxidation was determined through the induction period automatically calculated in accordance with the change of electrical conductivity. For comparison of antioxidative activity, the Antioxidative Index (AI) was calculated by using a lipid sample with no addition of the polyphenol composition as a control group from the following formula: Further, L-ascorbic acid was used as a positive control. Antioxidative Index (AI)=IG/IC (IG: […])

[3] = Trimethylamine (TMA) reducing effect, SPME-GC/MS; conditions: TMA 100 ppm standard aqueous solution; compositions T1-T6, 50 ppm of each polyphenol
Protocol: 30% concentration product of trimethylamine was purchased from Duksan Chemistry (Ansan, Republic of Korea) and used in the experiment. To determine the TMA-reducing effect, the standard reagent of 30% trimethylamine was diluted with distilled water to 100 ppm to prepare a standard aqueous solution. The prepared standard aqueous solution was used as a solvent to prepare a test polyphenol composition, and a trimethylamine-containing polyphenol composition sample was prepared and used for GC/MS analysis. The trimethylamine (TMA) component was determined from the polyphenol composition through the following method. […] The amount of TMA in the composition was calculated by comparing the peak area of 1.0 g of the sample and 1 g of 100 mg/L of TMA relative to each other and performing the comparative relative quantification of the contents of volatile aroma components in the sample. To determine the superiority of the combination of chlorogenic acid, caffeic acid, and quinic acid, the TMA reducing effect, which is known to be an effect of polyphenols, was evaluated. Specifically, the trimethylamine (TMA)-reducing effect was evaluated through the method of Experimental example 2 for each polyphenol composition prepared in Experimental example 1-2. […]

SMILES	PPO (%) inhibition of PPO activity (polyphenol oxidase (PPO))	DPPH (%) radical scavenging activity [1]	IP (min) induction period [2]	AI Antioxidative Index [2]	Reduction (%) of trimethylamine (TMA) [3] [%]
O=C1O[C@H]([C@@H](O)CO)C(O)=C1O [(+) control, L-ascorbic acid, reference compound]	22.86 ± 0.70^a %	81.07 ± 0.59^a %	90.53 ± 1.37^c min	1.22 ± 0.03^c	
O=C(O)[C@]1(O)C[C@@H](O)[C@@H](O)[C@H](O)C1 [Composition T3, Quinic acid]	19.47 ± 0.75^c %	0.60 ± 1.04^e %	77.23 ± 1.05^e min	1.04 ± 0.01^e	57.66
